Test results reported in ChEMBL document CHEMBL5512641, “Evaluation of novel 2-(quinoline-2-ylthio)acetamide derivatives linked to diphenyl-imidazole as α-glucosidase inhibitors: Insights from in silico, in vitro, and in vivo studies on their anti-diabetic properties” (Eur J Med Chem, 2024).
Calls of active or inactive are those of the source. The calls are words filed in the database; no cut-off is given here.

Assays:
Rattus norvegicus [1] = assay: Antidiabetic activity in high fat diet/streptozotocin induced diabetic rat Wistar albino model assessed as reduction in blood glucose level at 50 mg/kg, po administered once daily and measured on day 14 using overnight fasted rat blood by automatic blood glucose meter; assay type: functional, organism-based; settings: time 14.0 day
Rattus norvegicus [2] = assay: Antidiabetic activity in high fat diet/streptozotocin induced diabetic Wistar albino rat model assessed as reduction in blood glucose level at 50 mg/kg, po administered once daily and measured on day 28 using overnight fasted rat blood by automatic blood glucose meter; assay type: functional; settings: time 28 day
Rattus norvegicus [3] = assay: Antidiabetic activity in high fat diet/streptozotocin induced diabetic Wistar albino rat model assessed as increase in body weight at 50 mg/kg, po administered once daily and measured for 28 days; assay type: functional, organism-based; settings: time 28.0 day
Rattus norvegicus [4] = assay: Antidiabetic activity in 16 hrs fasted high fat diet/streptozotocin induced diabetic Wistar albino rat model assessed as reduction in blood glucose level at 50 mg/kg, po pretreated for 30 mins followed by glucose administration and measured after 30 to 120 mins by oral glucose tolerance test; assay type: functional, organism-based; settings: time […]
Alpha-glucosidase [5] = molecular target: T1, Alpha-glucosidase (Saccharomyces cerevisiae S288c, UniProt P53341+P38158+P07265); assay: Inhibition of Saccharomyces cerevisiae alpha-glucosidase using p-nitrophenyl-alpha-D-glucopyranoside as substrate measured after 20 mins by spectrophotometer; assay type: protein assay
Alpha-glucosidase [6] = molecular target: T1, Alpha-glucosidase; assay: Uncompetitive inhibition of Saccharomyces cerevisiae alpha-glucosidase using varying concentrations of p-nitrophenyl-alpha-D-glucopyranoside as substrate by Lineweaver-Burk plot analysis; assay type: protein assay
Alpha-glucosidase [7] = molecular target: T1, Alpha-glucosidase; assay: Competitive inhibition of Saccharomyces cerevisiae alpha-glucosidase using varying concentrations of p-nitrophenyl-alpha-D-glucopyranoside as substrate by Lineweaver-Burk plot analysis; assay type: protein assay
[8] = molecular target: Alpha-glucosidase (Saccharomyces cerevisiae S288c) (UniProt P53341+P38158+P07265); assay: Potency index, ratio of acarbose IC50 to test compound IC50 for inhibition of Saccharomyces cerevisiae alpha-glucosidase using p-nitrophenyl-alpha-D-glucopyranoside as substrate measured after 20 mins by spectrophotometer; assay type: protein assay
Alpha-glucosidase [9] = molecular target: T1, Alpha-glucosidase; assay: Inhibition of Saccharomyces cerevisiae alpha-glucosidase using p-nitrophenyl-alpha-D-glucopyranoside as substrate preincubated for 10 mins followed by substrate addition and measured after 20 mins by spectrophotometer; assay type: protein assay
Rattus norvegicus [10] = assay: Antidiabetic activity in high fat diet/streptozotocin induced diabetic Wistar albino rat model assessed as reduction in blood glucose level at 25 to 50 mg/kg, po administered once daily and measured on day 14 using overnight fasted rat blood by automatic blood glucose meter; assay type: functional, organism-based; settings: dose 25-50 mg/kg, time 14.0 day
Rattus norvegicus [11] = assay: Antidiabetic activity in high fat diet/streptozotocin induced diabetic Wistar albino rat model assessed as reduction in blood glucose level at 10 to 50 mg/kg, po administered once daily and measured on day 7 using overnight fasted rat blood by automatic blood glucose meter; assay type: functional, organism-based; settings: dose 10-50 mg/kg, time 7.0 day
Rattus norvegicus [12] = assay: Antidiabetic activity in high fat diet/streptozotocin induced diabetic Wistar albino rat model assessed as reduction in blood glucose level at 10 to 50 mg/kg, po administered once daily and measured immediately by automatic blood glucose meter; assay type: functional, organism-based; settings: dose 10-50 mg/kg
[13] = Acute toxicity in male Wistar albino rat assessed as symptoms of toxicity at 250 to 1000 mg/kg, po administered via gastric gavage and measured daily for 72 hrs; assay type: organism-based; settings: in vivo, dose 250-1000 mg/kg
[14] = Acute toxicity in male Wistar albino rat assessed as animal death at 250 to 1000 mg/kg, po administered via gastric gavage and measured daily for 72 hrs to 2 weeks; assay type: organism-based; settings: in vivo, dose lower 250 mg/kg, time lower 3 day, dose upper 1000 mg/kg, time upper 14 day
[15] = Acute toxicity in male Wistar albino rat assessed as symptoms of diarrhea at 250 to 1000 mg/kg, po administered via gastric gavage and measured daily for 2 weeks; assay type: organism-based; settings: in vivo, 336 h, dose 250-1000 mg/kg
[16] = Acute toxicity in male Wistar albino rat assessed as effect on sleeping at 250 to 1000 mg/kg, po administered via gastric gavage and measured daily for 2 weeks; assay type: organism-based; settings: in vivo, 336 h, dose 250-1000 mg/kg
[17] = Acute toxicity in male Wistar albino rat assessed as convulsions at 250 to 1000 mg/kg, po administered via gastric gavage and measured daily for 2 weeks; assay type: organism-based; settings: in vivo, 336 h, dose 250-1000 mg/kg
[18] = Acute toxicity in male Wistar albino rat assessed as lethargy at 250 to 1000 mg/kg, po administered via gastric gavage and measured daily for 2 weeks; assay type: organism-based; settings: in vivo, 336 h, dose 250-1000 mg/kg
[19] = Acute toxicity in male Wistar albino rat assessed as tremors at 250 to 1000 mg/kg, po administered via gastric gavage and measured daily for 2 weeks; assay type: organism-based; settings: in vivo, 336 h, dose 250-1000 mg/kg
[20] = Acute toxicity in male Wistar albino rat assessed as salivation at 250 to 1000 mg/kg, po administered via gastric gavage and measured daily for 2 weeks; assay type: organism-based; settings: in vivo, 336 h, dose 250-1000 mg/kg
Rattus norvegicus [21] = assay: Antidiabetic activity in high fat diet/streptozotocin induced diabetic Wistar albino rat model assessed as reduction in blood glucose level at 50 mg/kg, po administered once daily and measured on day 21 using overnight fasted rat blood by automatic blood glucose meter; assay type: functional, organism-based; settings: time 21.0 day
Rattus norvegicus [22] = assay: Antidiabetic activity in high fat diet/streptozotocin induced diabetic Wistar albino rat model assessed as reduction in blood glucose level at 10 mg/kg, po administered once daily and measured on day 28 using overnight fasted rat blood by automatic blood glucose meter; assay type: functional; settings: time 28 day
Rattus norvegicus [23] = assay: Antidiabetic activity in high fat diet/streptozotocin induced diabetic Wistar albino rat model assessed as reduction in blood glucose level at 20 mg/kg, po administered once daily and measured on day 28 using overnight fasted rat blood by automatic blood glucose meter; assay type: functional; settings: time 28 day
Rattus norvegicus [24] = assay: Antidiabetic activity in high fat diet/streptozotocin induced diabetic Wistar albino rat model assessed as increase in body weight at 10 to 50 mg/kg, po administered once daily and measured for 28 days; assay type: functional, organism-based; settings: dose 10-50 mg/kg, time 28.0 day
Rattus norvegicus [25] = assay: Antidiabetic activity in 16 hrs fasted high fat diet/streptozotocin induced diabetic Wistar albino rat model assessed as reduction in blood glucose level at 10 to 50 mg/kg, po pretreated for 30 mins followed by glucose administration and measured immediately by oral glucose tolerance test; assay type: functional, organism-based; settings: dose 10-50 mg/kg
Rattus norvegicus [26] = assay: Antidiabetic activity in 16 hrs fasted high fat diet/streptozotocin induced diabetic Wistar albino rat model assessed as reduction in blood glucose level at 25 to 50 mg/kg, po pretreated for 30 mins followed by glucose administration and measured after 30 mins by oral glucose tolerance test; assay type: functional, organism-based; settings: dose 25-50 mg/kg, time 60.0 min
Rattus norvegicus [27] = assay: Antidiabetic activity in 16 hrs fasted high fat diet/streptozotocin induced diabetic Wistar albino rat model assessed as reduction in blood glucose level at 10 to 50 mg/kg, po pretreated for 30 mins followed by glucose administration and measured after 60 to 120 mins by oral glucose tolerance test; assay type: functional, organism-based; settings: dose 10-50 mg/kg, time 30-150 min
Rattus norvegicus [28] = assay: Antidiabetic activity in high fat diet/streptozotocin induced diabetic Wistar albino rat model assessed as improvement in pancreatic islet architecture at 10 to 50 mg/kg, po administered once daily for 28 days by H and E staining based microscopic analysis; assay type: functional, organism-based; settings: dose 10-50 mg/kg, time 28.0 day

With `C[C@H]1O[C@H](O[C@H]2[C@H](O)[C@@H](O)[C@@H](O[C@H]3[C@H](O)[C@@H](O)C(O)O[C@@H]3CO)O[C@@H]2CO)[C@H](O)[C@@H](O)[C@@H]1N[C@H]1C=C(CO)[C@@H](O)[C@H](O)[C@H]1O` (stereo partly drawn) [ACARBOSE] the Activity (Rattus norvegicus [1]) was “Active”, the Activity (Rattus norvegicus [2]) was 115 mg/dL and the Activity (Rattus norvegicus [3]) was “Active”. The Activity (Rattus norvegicus [4]) was “Active”.

`Cc1ccc(CNC(=O)CSc2nc3ccccc3cc2-c2nc(-c3ccccc3)c(-c3ccccc3)[nH]2)cc1` gave an IC50 (Alpha-glucosidase [5]) of 1480 nM.

Work on `Cc1cccc(C)c1NC(=O)CSc1nc2ccccc2cc1-c1nc(-c2ccccc2)c(-c2ccccc2)[nH]1` yielded an IC50 (Alpha-glucosidase [5]) of 1250 nM and a Ki (Alpha-glucosidase [6]) of 1000 nM.

`O=C(CSc1nc2ccccc2cc1-c1nc(-c2ccccc2)c(-c2ccccc2)[nH]1)NCc1ccccc1` gave an IC50 (Alpha-glucosidase [5]) of 1790 nM.

In the case of `O=C(CSc1nc2ccccc2cc1-c1nc(-c2ccccc2)c(-c2ccccc2)[nH]1)Nc1ccc2ccccc2c1`, the IC50 (Alpha-glucosidase [5]) is reported as 1220 nM and the Ki (Alpha-glucosidase [7]) is reported as 2200 nM.

In the case of `Cc1ccccc1NC(=O)CSc1nc2ccccc2cc1-c1nc(-c2ccccc2)c(-c2ccccc2)[nH]1`, the IC50 (Alpha-glucosidase [5]) is reported as 1500 nM.

Compound `O=C(CSc1nc2ccccc2cc1-c1nc(-c2ccccc2)c(-c2ccccc2)[nH]1)Nc1ccccc1` has an IC50 (Alpha-glucosidase [5]) of 2100 nM and a Ratio IC50 [8] of 375.

With `Cc1c(NC(=O)CSc2nc3ccccc3cc2-c2nc(-c3ccccc3)c(-c3ccccc3)[nH]2)cccc1[N+](=O)[O-]` the IC50 (Alpha-glucosidase [5]) was 1020 nM and the Ki (Alpha-glucosidase [6]) was 990 nM.

With `Cc1cccc(NC(=O)CSc2nc3ccccc3cc2-c2nc(-c3ccccc3)c(-c3ccccc3)[nH]2)c1C` the IC50 (Alpha-glucosidase [5]) was 2050 nM.

With `O=C(CSc1nc2ccccc2cc1-c1nc(-c2ccccc2)c(-c2ccccc2)[nH]1)Nc1cccc(Cl)c1Cl` the IC50 (Alpha-glucosidase [5]) was 1580 nM.

In the case of `O=C(CSc1nc2ccccc2cc1-c1nc(-c2ccccc2)c(-c2ccccc2)[nH]1)Nc1ccccc1Cl`, the IC50 (Alpha-glucosidase [5]) is reported as 1950 nM.

With `O=C(CSc1nc2ccccc2cc1-c1nc(-c2ccccc2)c(-c2ccccc2)[nH]1)Nc1ccc(Br)cc1` the IC50 (Alpha-glucosidase [5]) was 1980 nM.

Compound `O=C(CSc1nc2ccccc2cc1-c1nc(-c2ccccc2)c(-c2ccccc2)[nH]1)Nc1cccc(Cl)c1` has an IC50 (Alpha-glucosidase [5]) of 1850 nM.

`Clc1ccccc1Cn1cc(CSc2nc(-c3ccccc3)c(-c3ccccc3)[nH]2)nn1` showed an IC50 (Alpha-glucosidase [9]) of 85600 nM.

With `O=C(CSc1nc2ccccc2cc1-c1nc(-c2ccccc2)c(-c2ccccc2)[nH]1)Nc1ccccc1F` the IC50 (Alpha-glucosidase [5]) was 2020 nM.

Compound `Cc1cc([N+](=O)[O-])ccc1NC(=O)CSc1nc2ccccc2cc1-c1nc(-c2ccccc2)c(-c2ccccc2)[nH]1` has an IC50 (Alpha-glucosidase [5]) of 1530 nM.

`O=C(CSc1nc2ccccc2cc1-c1nc(-c2ccccc2)c(-c2ccccc2)[nH]1)NCc1ccc(F)cc1` showed an IC50 (Alpha-glucosidase [5]) of 1260 nM and a Ki (Alpha-glucosidase [7]) of 1400 nM.

In the case of `COc1ccc2nc3cc(Cl)ccc3c(SCC(=O)Nc3ccc(C)cc3)c2c1`, the IC50 (Alpha-glucosidase [9]) is reported as 80000 nM.

Compound `Cc1cccc(C)c1NC(=O)CSc1nc2ccccc2cc1/C=N/NC(=O)c1ccccc1` has an IC50 (Alpha-glucosidase [9]) of 14000 nM.

For `O=C(CSc1nc2ccccc2cc1-c1nc(-c2ccccc2)c(-c2ccccc2)[nH]1)Nc1ccc(F)cc1`, the Activity (Rattus norvegicus [10]) was “Active”, the Activity (Rattus norvegicus [11]) was “inactive” and the Activity (Rattus norvegicus [12]) was “inactive”. For the same compound, the IC50 (Alpha-glucosidase [5]) was 180 nM, the Ki (Alpha-glucosidase [7]) was 150 nM and the Activity [13] was “Non-Toxic”. For the same compound, the Activity [14] was “Non-Toxic”, the Activity [15] was “Non-Toxic” and the Activity [16] was “Non-Toxic”. The Activity [17] was “Non-Toxic”, the Activity [18] was “Non-Toxic” and the Activity [19] was “Non-Toxic”. The Activity [20] was “Non-Toxic”, the Activity (Rattus norvegicus [21]) was “Active” and the Activity (Rattus norvegicus [2]) was 127.83 mg/dL. The Activity (Rattus norvegicus [22]) was 242 mg/dL, the Activity (Rattus norvegicus [23]) was 207.83 mg/dL and the Activity (Rattus norvegicus [24]) was “Active”. For the same compound, the Activity (Rattus norvegicus [25]) was “inactive”, the Activity (Rattus norvegicus [26]) was “Active” and the Activity (Rattus norvegicus [27]) was “Active”. The Activity (Rattus norvegicus [28]) was “Active”.

`O=C(CSc1nc2ccccc2cc1-c1nc(-c2ccccc2)c(-c2ccccc2)[nH]1)Nc1ccc(Cl)cc1` gave an IC50 (Alpha-glucosidase [5]) of 1800 nM.

Compound `CCc1ccc(NC(=O)CSc2nc3ccccc3cc2-c2nc(-c3ccccc3)c(-c3ccccc3)[nH]2)cc1` has an IC50 (Alpha-glucosidase [5]) of 960 nM and a Ki (Alpha-glucosidase [6]) of 770 nM.

In the case of `Cc1ccc(NC(=O)CSc2nc3ccccc3cc2-c2nc(-c3ccccc3)c(-c3ccccc3)[nH]2)cc1`, the IC50 (Alpha-glucosidase [5]) is reported as 1770 nM.
